Data published in patent US11504320B2, “Use of naturally glycosylated polyphenols as protective agents against the effects of ultraviolet irradiation” (MEDENA AG, priority 2017, dated 2022).
“Also recorded” adds a separate entry of the source. Where two headings read alike, the source gives them in different places. Marks after values point to notes of the source that are not given here.

Columns and labels:
[1] = Photo stability: effect of solar simulating UV irradiation on SPF values of sunscreens; type: physicochemical; settings: for SPF after UV irradiation: fifty μM solution
Protocol: Fifty μM sunscreen solutions placed in 3.5 cm Petri dishes were irradiated by 66% UVA+33% UVB for 1, 3, 20, and 40 min. Final doses of UV irradiation were 0.15, 0.45, 3.0, and 6.0 J/cm^2, respectively. * p<0.05 vs background SPF; ** p<0.01 vs background SPF.

[2] = Broad band UVB and UVA absorption (SPF and UVA/UVB ratio) of sunscreens; type: physicochemical; settings: for SPF1 (sun protection factor corresponding to UVB absorption): 250 μM sunscreen; for SPF2 (sun protection factor corresponding to UVB absorption): 10% (weight %) sunscreen
Protocol: For the invention as claimed data are presented in support of the surprising finding that definite naturally glycosylated polyphenols provide optimal photo-protection due to several reasons. They effectively absorb broad-band range of UV light in both spectrum regions: UVA and UVB. […] The efficacy of absorption is expressed as SPF (sun protection factor) for UVB range representing an integral of absorption within the whole UVB spectrum. The efficacy of absorption is also calculated as the UVA/UVB ratio showing that the ratio should be greater than 0.5 up to 1.2 in order to provide proper UVA protection.

skin cells = assay: Photo-chemo-toxicity (photo-chemo damage to skin cells); type: cell-based
Source text: This is true for quercetin and its alpha-glycosylated derivative, resveratrol, chalcone and many others. The phenomenon of photo-chemo-toxicity depends of UV-induced destruction of the parent molecule and cytotoxicity exerted by the formed metabolites.

[3] = solar simulated UVB+UVA irradiation
[4] = UV (66% UVA + 33% UVB) 0 J/cm^2
[5] = UV (66% UVA + 33% UVB) 0.15 J/cm^2 (1 min)
[6] = UV (66% UVA + 33% UVB) 0.45 J/cm^2 (3 min)
[7] = UV (66% UVA + 33% UVB) 3.0 J/cm^2 (20 min)
[8] = UV (66% UVA + 33% UVB) 6.0 J/cm^2 (40 min)

Compound | Photo-stability on exposure to UV irradiation (in words) [1, 3] | SPF after UV irradiation [1, 4] | SPF after UV irradiation [1, 7] | SPF after UV irradiation [1, 8] | UVA/UVB (ratio of UVA to UVB absorption) [2] | SPF1 (sun protection factor corresponding to UVB absorption) [2] | SPF2 (sun protection factor corresponding to UVB absorption) [2] | also measured
O=c1c(O)c(-c2cc(O)c(O)c(O)c2)oc2cc(O)cc(O)c12 [myricetin] | easily destructed | – | – | – | – | – | – | –
O=c1c(O)c(-c2ccc(O)cc2)oc2cc(O)cc(O)c12 [kaempferol] | unstable to exposure to UV irradiation | – | – | – | – | – | – | Photo-stability on exposure to UV irradiation (in words) ([1]; solar simulated UVB+UVA irradiation, listed as kaempherol): easily destructed
COc1cc(/C=C/C(=O)O)ccc1O [trans-Ferulic acid] | – | 7.34 ± 0.18 | 3.61 ± 0.13 | 3.74 ± 0.17 | – | – | – | SPF after UV irradiation [1, 5]: 5.34 ± 0.09**; SPF after UV irradiation [1, 6]: 3.91 ± 0.11
C[C@@H]1O[C@@H](O[C@@H]2[C@@H](O)[C@H](OCCc3ccc(O)c(O)c3)O[C@H](CO)[C@H]2OC(=O)/C=C/c2ccc(O)c(O)c2)[C@H](O)[C@H](O)[C@H]1O [Verbascoside] | – | 8.25 ± 0.09 | 8.23 ± 0.12 | 8.26 ± 0.10 | 0.59 | 8.25 ± 0.09 | 5.29 ± 0.09 | –
O=c1c(O)c(-c2ccc(O)cc2O)oc2cc(O)cc(O)c12 [Morin] | – | – | – | – | 1.70 | 2.63 ± 0.08 | 3.48 ± 0.12 | –
Oc1ccc(C=Cc2cc(O)cc(O)c2)cc1 [Resveratrol] | unstable to exposure to UV irradiation; also recorded: easily destructed | 11.98 ± 0.11 | 4.93 ± 0.16 | 4.63 ± 0.10 | – | – | – | SPF after UV irradiation [1, 5]: 4.81 ± 0.20**; SPF after UV irradiation [1, 6]: 4.25 ± 0.20; Photo-chemo-toxicity (in words) (skin cells): photo-chemo-toxicity
O=c1c(O)c(-c2ccc(O)c(O)c2)oc2cc(O)cc(O)c12 [Quercetin] | photo-unstable | – | – | – | – | – | – | Photo-stability on exposure to UV irradiation (in words) ([1]; solar simulated UVB+UVA irradiation, listed as quercetin): unstable to exposure to UV irradiation; also recorded: easily destructed; Photo-chemo-toxicity (in words) (skin cells): photo-chemo-toxicity
O=C(/C=C/c1ccccc1)c1ccccc1 [Ghalcone] | – | – | – | – | – | – | – | Photo-chemo-toxicity (in words) (skin cells; skin cells, UV): photo-chemo-toxicity
alpha-glycosyl quercetin [alpha-glycosylated derivative] | – | – | – | – | – | – | – | Photo-stability on exposure to UV irradiation (in words) [1]: photo-unstable; Photo-chemo-toxicity (in words) (skin cells): photo-chemo-toxicity
Leontopodic acids | – | – | – | – | 0.51 | 11.83 ± 0.12 | 6.79 ± 0.12 | –
O=C1c2c(O)cc(O)cc2O[C@H](c2ccc(O)c(O)c2)[C@H]1O [Taxifolin] | – | 6.38 ± 0.12 | 6.38 ± 0.12 | 6.39 ± 0.12 | 0.46 | 6.38 ± 0.12 | 8.39 ± 0.14 | –
O=c1cc(-c2ccccc2)oc2cc(O)c(O)c(O)c12 [Baicalein] | easily destructed | 3.68 ± 0.15 | 3.69 ± 0.12 | 3.79 ± 0.12 | 1.14 | 3.65 ± 0.12 | 5.41 ± 0.12 | SPF after UV irradiation [1, 5]: 3.63 ± 0.12; SPF after UV irradiation [1, 6]: 3.62 ± 0.13
